Results from US9421209B2, “Kinase modulators” (Rhizen Pharmaceuticals SA, priority 2009, dated 2016).

Experiments:
P110 δ/Pi3K δ = P110 δ/Pi3K δ (Homo sapiens, UniProt O00329); test: Fluorescent (HTRF) determination of PI3K enzyme activity, δ isoform; type: biochemical; set-up: inhibition: dose or concentration left out as unconfirmed; conditions: for IC50: read-out: P110 δ/Pi3K δ IC 50 nM
How it was run: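 IC50 fitted from percent inhibition relative to blank and enzyme-only wells. Human PI3Kδ converts PIP2 to PIP3 after addition of 400 μM ATP solution, 30 min at room temperature. Product read by time-resolved FRET after stop and 6–18 h dark incubation with detection reagents.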

Sequence of P110 δ/Pi3K δ (O00329 whole entry, canonical isoform): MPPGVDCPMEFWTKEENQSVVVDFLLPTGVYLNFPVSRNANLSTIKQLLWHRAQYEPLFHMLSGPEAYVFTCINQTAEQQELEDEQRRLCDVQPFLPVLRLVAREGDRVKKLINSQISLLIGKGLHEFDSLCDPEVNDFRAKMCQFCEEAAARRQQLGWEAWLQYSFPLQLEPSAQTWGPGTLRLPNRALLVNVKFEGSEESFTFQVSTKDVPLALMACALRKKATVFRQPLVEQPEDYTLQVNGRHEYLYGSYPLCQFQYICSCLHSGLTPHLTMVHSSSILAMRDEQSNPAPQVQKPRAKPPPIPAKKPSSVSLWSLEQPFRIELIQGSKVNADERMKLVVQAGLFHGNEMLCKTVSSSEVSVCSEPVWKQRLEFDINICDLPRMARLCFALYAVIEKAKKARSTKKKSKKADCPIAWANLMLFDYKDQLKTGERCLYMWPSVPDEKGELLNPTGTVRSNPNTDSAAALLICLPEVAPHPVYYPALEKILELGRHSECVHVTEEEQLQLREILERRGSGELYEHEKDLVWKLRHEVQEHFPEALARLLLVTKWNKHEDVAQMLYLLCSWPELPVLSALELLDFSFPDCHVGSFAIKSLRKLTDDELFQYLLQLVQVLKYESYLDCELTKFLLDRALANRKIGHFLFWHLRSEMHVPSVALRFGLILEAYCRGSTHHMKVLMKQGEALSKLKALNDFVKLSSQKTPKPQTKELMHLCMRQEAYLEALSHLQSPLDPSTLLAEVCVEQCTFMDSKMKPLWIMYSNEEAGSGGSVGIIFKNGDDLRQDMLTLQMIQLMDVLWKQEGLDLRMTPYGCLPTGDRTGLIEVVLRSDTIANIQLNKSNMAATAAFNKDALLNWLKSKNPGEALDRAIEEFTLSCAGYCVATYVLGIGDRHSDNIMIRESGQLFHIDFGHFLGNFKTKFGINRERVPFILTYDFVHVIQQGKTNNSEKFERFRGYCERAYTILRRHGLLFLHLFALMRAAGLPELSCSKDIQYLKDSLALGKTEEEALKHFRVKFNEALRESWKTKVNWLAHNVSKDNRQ
Sequence of P110 δ/Pi3K δ (P27986 whole entry partner, canonical isoform): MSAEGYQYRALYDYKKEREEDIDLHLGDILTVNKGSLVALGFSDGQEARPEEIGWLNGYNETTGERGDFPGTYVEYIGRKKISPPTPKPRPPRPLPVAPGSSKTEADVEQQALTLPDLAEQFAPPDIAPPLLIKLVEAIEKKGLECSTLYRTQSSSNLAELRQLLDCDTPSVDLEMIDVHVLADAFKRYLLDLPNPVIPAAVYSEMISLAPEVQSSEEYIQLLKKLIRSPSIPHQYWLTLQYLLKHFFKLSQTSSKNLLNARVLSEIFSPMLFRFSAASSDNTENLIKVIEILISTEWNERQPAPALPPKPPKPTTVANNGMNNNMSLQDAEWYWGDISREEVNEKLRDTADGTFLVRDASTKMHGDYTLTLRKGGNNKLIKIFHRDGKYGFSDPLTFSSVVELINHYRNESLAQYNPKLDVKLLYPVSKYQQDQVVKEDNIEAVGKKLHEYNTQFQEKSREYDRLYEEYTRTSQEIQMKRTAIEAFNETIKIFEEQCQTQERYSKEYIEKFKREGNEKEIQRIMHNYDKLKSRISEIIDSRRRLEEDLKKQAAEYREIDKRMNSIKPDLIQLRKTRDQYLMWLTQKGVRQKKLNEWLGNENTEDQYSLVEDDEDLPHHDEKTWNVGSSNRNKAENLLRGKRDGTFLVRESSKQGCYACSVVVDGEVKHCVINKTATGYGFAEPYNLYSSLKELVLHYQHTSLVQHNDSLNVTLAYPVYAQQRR

SMILES | inhibition (P110 δ/Pi3K δ) | melting point | inhibition at 1 µM (P110 δ/Pi3K δ) | IC50 (P110 δ/Pi3K δ)
Nc1ncnc2c1ncn2Cc1oc2ccccc2c(=O)c1-c1ccc(F)cc1 [Example 16, 2-[(6-Amino-9H-purin-9-yl)methyl]-3-(4-fluorophenyl)-4H-chromen-4-one] | – | 212 to 216 °C | < 50% | –
O=c1c(-c2ccccc2)c(Cn2ccnc2)oc2ccccc12 [Example 12, 2-[(1H-Imidazol-1-yl)methyl]-3-phenyl-4H-chromen-4-one] | – | 168 to 171 °C | < 50% | –
CC(c1oc2ccccc2c(=O)c1-c1ccccc1)n1nc(-c2ccc3cn[nH]c3c2)c2c(N)ncnc21 (centres unmarked) [Example 70, 2-(1-(4-amino-3-(1H-indazol-6-yl)-1H-pyrazolo[3,4-d]pyrimidin-1-yl)ethyl)-3-phenyl-4H-chromen-4-one] | – | 176 to 178 °C | 50 to 100% | –
CC(c1oc2ccccc2c(=O)c1-c1cccc(F)c1)n1nc(-c2cccc(OC(F)(F)F)c2)c2c(N)ncnc21 (centres unmarked) [Example 87, 2-(1-(4-amino-3-(3-(trifluoromethoxy)phenyl)-1H-pyrazolo[3,4-d]pyrimidin-1-yl)ethyl)-3-(3-fluorophenyl)-4H-chromen-4-one] | 50 to 100% | 155 to 157 °C | – | –
CC(c1oc2ccccc2c(=O)c1-c1cccc(F)c1)n1nc(-c2cn[nH]c2)c2c(N)ncnc21 (centres unmarked) [Example 72, 2-(1-(4-amino-3-(1H-pyrazol-4-yl)-1H-pyrazolo[3,4-d]pyrimidin-1-yl)ethyl)-3-(3-fluorophenyl)-4H-chromen-4-one] | – | 223 to 226 °C | 50 to 100% | < 250 nM
CC(=O)Nc1cccc(-c2nn(Cc3oc4ccccc4c(=O)c3-c3ccccc3)c3ncnc(N)c23)c1 [Example 65, N-(3-(4-amino-1-((4-oxo-3-phenyl-4H-chromen-2-yl)methyl)-1H-pyrazolo[3,4-d]pyrimidin-3-yl)phenyl)acetamide] | – | 122 to 123 °C | < 50% | –
CC(c1oc2ccccc2c(=O)c1-c1cccc(F)c1)n1nc(-c2cccc(O)c2)c2c(N)ncnc21 (centres unmarked) [Example 51a, 2-(1-(4-amino-3-(3-hydroxyphenyl)-1H-pyrazolo[3,4-d]pyrimidin-1-yl)ethyl)-3-(3-fluorophenyl)-4H-chromen-4-one] | – | 282 to 285 °C | 50 to 100% | < 250 nM
Nc1ncnc2c1c(-c1cccc(F)c1)nn2Cc1oc2ccccc2c(=O)c1-c1ccccc1 [Example 63, 2-((4-amino-3-(3-fluorophenyl)-1H-pyrazolo[3,4-d]pyrimidin-1-yl)methyl)-3-phenyl-4H-chromen-4-one] | – | 244 to 247 °C | < 50% | –

Next, values leading:

inhibition (P110 δ/Pi3K δ) | melting point | inhibition at 1 µM (P110 δ/Pi3K δ) | IC50 (P110 δ/Pi3K δ) | SMILES
< 50% | 167 to 170 °C | – | – | COCc1cccc(-c2nn(C(C)c3oc4ccccc4c(=O)c3-c3cccc(F)c3)c3ncnc(N)c23)c1 (centres unmarked) [Example 161, 2-(1-(4-amino-3-(3-(methoxymethyl)phenyl)-1H-pyrazolo[3,4-d]pyrimidin-1-yl)ethyl)-3-(3-fluorophenyl)-4H-chromen-4-one]
< 50% | 203 to 206 °C | – | – | CC(c1oc2ccccc2c(=O)c1-c1cccc(F)c1)n1nc(-c2ccc(F)nc2)c2c(N)ncnc21 (centres unmarked) [Example 159, 2-(1-(4-amino-3-(6-fluoropyridin-3-yl)-1H-pyrazolo[3,4-d]pyrimidin-1-yl)ethyl)-3-(3-fluorophenyl)-4H-chromen-4-one]
< 50% | 197 to 201 °C | – | – | CC(c1oc2ccccc2c(=O)c1-c1cccc(F)c1)n1ncc2c(Cl)ncnc21 (centres unmarked) [Example 168, 2-(1-(4-Chloro-1H-pyrazolo[3,4-d]pyrimidin-1-yl)ethyl)-3-(3-fluorophenyl)-4H-chromen-4-one]
< 50% | 71 to 75 °C | – | – | CC(c1oc2ccccc2c(=O)c1-c1cccc(F)c1)n1ccc2c(Cl)ncnc21 (centres unmarked) [Example 166, 2-(1-(4-Chloro-7H-pyrrolo[2,3-d]pyrimidin-7-yl)ethyl)-3-(3-fluorophenyl)-4H-chromen-4-one]
